Source: patent publication US20240336613A1, “HETEROARYL COMPOUNDS FOR TREATING HUNTINGTON'S DISEASE” (PTC THERAPEUTICS, INC., priority 2021, published 2024)

The compounds below were run on Huntingtin protein (HTT) (assay: Endogenous Huntingtin Protein Assay (MSD electrochemiluminescence)). Conditions: Cpd 72 compared with Cpd 7 in WO2020/005873.
Format: cell-based
Experimental: Compounds of Formula (I) were tested using the Meso Scale Discovery (MSD) Assay provided in International Application No. PCT/US2016/066042, filed on Dec. 11, 2016 and claiming priority to United States Provisional Application U.S. 62/265,652 filed on Dec. 10, 2015, the entire contents of which are incorporated herein by reference.
The Endogenous Huntingtin Protein assay used in Example 1 was developed using the ELISA-based MSD electrochemiluminescence assay platform.
Meso Scale Discovery (MSD) 96-well or 384-well plates were coated overnight at 4° C. with MW1 (expanded polyglutamine) or MAB2166 monoclonal antibody (for capture) at a concentration of 1 μg/mL in PBS (30 μL per well). Plates were then washed three times with 300 μL wash buffer (0.05% Tween-20 in PBS) and blocked (100 μL blocking buffer; 5% BSA in PBS) for 4-5 hours at room temperature with rotational shaking and then washed three times with wash buffer.
Samples (25 μL) were transferred to the antibody-coated MSD plate and incubated overnight at 4° C. After removal of the lysates, the plate was washed three times with wash buffer, and 25 μL of #5656S (Cell signaling; rabbit monoclonal) secondary antibody (diluted to 0.25 μg/mL in 0.05% Tween-20 in blocking buffer) was added to each well and incubated with shaking for 1 Hour at room temperature. Following incubation with the secondary antibody, the wells were rinsed with wash buffer after which 25 μL of goat anti-rabbit SULFO TAG secondary detection antibody (required aspect of the MSD system) (diluted to 0.25 μg/mL in 0.05% Tween-20 in blocking buffer) was added to each well and incubated with shaking for 1 hour at room temperature. After rinsing three times with wash buffer, 150 μL of read buffer T with surfactant (MSD) were added to each empty well, and the plate was imaged on a SI 6000 imager (MSD) according to manufacturers' instructions provided for 96- or 384-well plates.

| Compound | potency comparison, 1H-pyrazole moiety replaced with 1H-1,2,3-triazole moiety |
| --- | --- |
| CC1(C)CC(n2nnc3cc(-c4ccc(-n5ccnn5)cc4O)nnc32)CC(C)(C)N1 [Cpd 72 in WO2020/005873, reference compound] | significant loss in potency |

Same assay, conditions: Table 1, Endogenous Huntingtin Protein Assay

| Compound | IC50 |
| --- | --- |
| Cc1cnnn1-c1ccc(-c2cc3ccn([C@H]4CC(C)(C)NC(C)(C)[C@H]4F)c3nn2)c(O)c1 [Cpd 17, 2-{7-[(3S,4S)-3-fluoro-2,2,6,6-tetramethylpiperidin-4-yl]-7H-pyrrolo[2,3-c]pyridazin-3-yl}-5-(5-methyl-1H-1,2,3-triazol-1-yl)phenol] | 100 to 500 nM |
| Cc1cn(-c2ccc(-c3cc4ccn([C@H]5CC(C)(C)NC(C)(C)[C@H]5F)c4nn3)c(O)c2)nn1 [Cpd 15, 2-{7-[(3S,4S)-3-fluoro-2,2,6,6-tetramethylpiperidin-4-yl]-7H-pyrrolo[2,3-c]pyridazin-3-yl}-5-(4-methyl-1H-1,2,3-triazol-1-yl)phenol] | < 100 nM |
| CC1(C)C[C@H](n2ccc3cc(-c4ccc(-n5cc(Cl)nn5)cc4O)nnc32)[C@H](F)C(C)(C)N1 [Cpd 19, 5-(4-chloro-1H-1,2,3-triazol-1-yl)-2-{7-[(3S,4S)-3-fluoro-2,2,6,6-tetramethylpiperidin-4-yl]-7H-pyrrolo[2,3-c]pyridazin-3-yl}phenol] | < 100 nM |
| Cc1cn(-c2ccc(-c3cc4ccn([C@H]5CCNC6(CC6)C5)c4nn3)c(O)c2)nn1 [Cpd 16, 2-{7-[(7S)-4-azaspiro[2.5]octan-7-yl]-7H-pyrrolo[2,3-c]pyridazin-3-yl}-5-(4-methyl-1H-1,2,3-triazol-1-yl)phenol] | < 100 nM |

Same assay, conditions: Table 1, Endogenous Huntingtin Protein Assay; read-out: IC50

| Compound | IC50 |
| --- | --- |
| 2-{7-[(4S,5R)-5-fluoro-2,2-dimethylpiperidin-4-yl]-7H-pyrrolo[2,3-c]pyridazin-3-yl}-5-(1H-1,2,3-triazol-1-yl)phenol and 2-{7-[(4R,5S)-5-fluoro-2,2-dimethylpiperidin-4-yl]-7H-pyrrolo[2,3-c]pyridazin-3-yl}-5-(1H-1,2,3-triazol-1-yl)phenol [Cpd 12] | < 100 nM |
| Oc1cc(-n2ccnn2)ccc1-c1cc2ccn(C3CC4(CC4)NC4(CC4)C3)c2nn1 (centres unmarked) [Cpd 24, 2-[7-(4-azadispiro[2.1.2^5.3^3]decan-9-yl)-7H-pyrrolo[2,3-c]pyridazin-3-yl]-5-(1H-1,2,3-triazol-1-yl)phenol] | < 100 nM |
| Oc1cc(-n2ccnn2)ccc1-c1cc2ccn([C@@H]3CCNC4(CC4)C3)c2nn1 [Cpd 11, 2-{7-[(7R)-4-azaspiro[2.5]octan-7-yl]-7H-pyrrolo[2,3-c]pyridazin-3-yl}-5-(1H-1,2,3-triazol-1-yl)phenol] | < 100 nM |
| CN1CCC(n2ccc3cc(-c4ccc(-n5ccnn5)cc4O)nnc32)CC12CC2 (centres unmarked) [Cpd 7, 2-[7-(4-methyl-4-azaspiro[2.5]octan-7-yl)-7H-pyrrolo[2,3-c]pyridazin-3-yl]-5-(1H-1,2,3-triazol-1-yl)phenol] | < 100 nM |
| Oc1cc(-n2ccnn2)cnc1-c1cc2ccn([C@H]3CCNC4(CC4)C3)c2nn1 [Cpd 14, 2-{7-[(7S)-4-azaspiro[2.5]octan-7-yl]-7H-pyrrolo[2,3-c]pyridazin-3-yl}-5-(1H-1,2,3-triazol-1-yl)pyridine-3-ol] | < 100 nM |
| 2-{7-[(8R,9R)-9-fluoro-5-azaspiro[3.5]nonan-8-yl]-7H-pyrrolo[2,3-c]pyridazin-3-yl}-5-(1H-1,2,3-triazol-1-yl)phenol and 2-{7-[(8S,9S)-9-fluoro-5-azaspiro[3.5]nonan-8-yl]-7H-pyrrolo[2,3-c]pyridazin-3-yl}-5-(1H-1,2,3-triazol-1-yl)phenol [Cpd 23] | < 100 nM |
| 2-{7-[(3S,4S)-3-fluoro-2,2,6,6-tetramethylpiperidin-4-yl]-7H-pyrrolo[2,3-c]pyridazin-3-yl}-5-(1H-1,2,3-triazol-1-yl)phenol and 2-{7-[(3R,4R)-3-fluoro-2,2,6,6-tetramethylpiperidin-4-yl]-7H-pyrrolo[2,3-c]pyridazin-3-yl}-5-(1H-1,2,3-triazol-1-yl)phenol [Cpd 2] | < 100 nM |
| 2-{7-[(8S,9R)-8-fluoro-6-azaspiro[4.5]decan-9-yl]-7H-pyrrolo[2,3-c]pyridazin-3-yl}-5-(1H-1,2,3-triazol-1-yl)phenol and 2-{7-[(8R,9S)-8-fluoro-6-azaspiro[4.5]decan-9-yl]-7H-pyrrolo[2,3-c]pyridazin-3-yl}-5-(1H-1,2,3-triazol-1-yl)phenol [Cpd 25] | 100 to 500 nM |
| Cc1cc2cc(-c3ccc(-n4ccnn4)cc3O)nnc2n1[C@H]1CC(C)(C)NC(C)(C)[C@H]1F [Cpd 10, 2-{7-[(3S,4S)-3-fluoro-2,2,6,6-tetramethylpiperidin-4-yl]-6-methyl-7H-pyrrolo[2,3-c]pyridazin-3-yl}-5-(1H-1,2,3-triazol-1-yl)phenol] | < 100 nM |
| Oc1cc(-n2ccnn2)ccc1-c1cc2ccn([C@H]3CCNC4(CC4)C3)c2nn1 [Cpd 13, 2-{7-[(7S)-4-azaspiro[2.5]octan-7-yl]-7H-pyrrolo[2,3-c]pyridazin-3-yl}-5-(1H-1,2,3-triazol-1-yl)phenol] | < 100 nM |
| Cc1cnnn1-c1ccc(-c2cc3ccn([C@H]4CCNC5(CC5)C4)c3nn2)c(O)c1 [Cpd 18, 2-{7-[(7S)-4-azaspiro[2.5]octan-7-yl]-7H-pyrrolo[2,3-c]pyridazin-3-yl}-5-(5-methyl-1H-1,2,3-triazol-1-yl)phenol] | 500 to 1000 nM |
| 2-{7-[(3R,4S)-3-fluoro-2,2,6,6-tetramethylpiperidin-4-yl]-7H-pyrrolo[2,3-c]pyridazin-3-yl}-5-(1H-1,2,3-triazol-1-yl)phenol and 2-{7-[(3S,4R)-3-fluoro-2,2,6,6-tetramethylpiperidin-4-yl]-7H-pyrrolo[2,3-c]pyridazin-3-yl}-5-(1H-1,2,3-triazol-1-yl)phenol [Cpd 3] | < 100 nM |
| Cc1cc2cc(-c3ccc(-n4ccnn4)cc3O)nnc2n1C1CCNC2(CC2)C1 (centres unmarked) [Cpd 9, 2-[7-(4-azaspiro[2.5]octan-7-yl)-6-methyl-7H-pyrrolo[2,3-c]pyridazin-3-yl]-5-(1H-1,2,3-triazol-1-yl)phenol] | 100 to 500 nM |
| CC1(C)C[C@H](n2ccc3cc(-c4ccc(-n5ccnn5)cc4O)nnc32)[C@H](F)C(C)(C)N1 [Cpd 8] | < 100 nM |
| CC1(C)C[C@H](n2ccc3cc(-c4c(O)cc(-n5ccnn5)cc4F)nnc32)[C@H](F)C(C)(C)N1 [Cpd 27, 3-fluoro-2-{7-[(3S,4S)-3-fluoro-2,2,6,6-tetramethylpiperidin-4-yl]-7H-pyrrolo[2,3-c]pyridazin-3-yl}-5-(1H-1,2,3-triazol-1-yl)phenol] | < 100 nM |
| CC1(C)C[C@H](n2ccc3cc(-c4cc(F)c(-n5ccnn5)cc4O)nnc32)[C@H](F)C(C)(C)N1 [Cpd 26, 4-fluoro-2-{7-[(3S,4S)-3-fluoro-2,2,6,6-tetramethylpiperidin-4-yl]-7H-pyrrolo[2,3-c]pyridazin-3-yl}-5-(1H-1,2,3-triazol-1-yl)pheno] | < 100 nM |
| 5-(1H-1,2,3-triazol-1-yl)-2-{7-[(4RS)-1,2,2-trimethylpiperidin-4-yl]-7H-pyrrolo[2,3-c]pyridazin-3-yl}phenol [Cpd 6] | 500 to 1000 nM |
| CC1(C)CC(n2ccc3cc(-c4ccc(-n5ccnn5)cc4O)nnc32)CCN1 (racemic) [Cpd 5, 2-{7-[(4RS)-2,2-dimethylpiperidin-4-yl]-7H-pyrrolo[2,3-c]pyridazin-3-yl}-5-(1H-1,2,3-triazol-1-yl)phenol] | < 100 nM |
| CC1(C)CC(n2ccc3cc(-c4ccc(-n5ccnn5)cc4O)nnc32)CC(C)(C)N1 [Cpd 1, 2-[7-(2,2,6,6-tetramethylpiperidin-4-yl)-7H-pyrrolo[2,3-c]pyridazin-3-yl]-5-(1H-1,2,3-triazol-1-yl)phenol] | < 100 nM |
| 2-{7-[(1S,2S,3R,5R)-2-fluoro-8-azabicyclo[3.2.1]octan-3-yl]-7H-pyrrolo[2,3-c]pyridazin-3-yl}-5-(1H-1,2,3-triazol-1-yl)phenol and 2-{7-[(1R,2R,3S,5S)-2-fluoro-8-azabicyclo[3.2.1]octan-3-yl]-7H-pyrrolo[2,3-c]pyridazin-3-yl}-5-(1H-1,2,3-triazol-1-yl)phenol [Cpd 20] | < 100 nM |
| CC1(C)C[C@H](n2ccc3cc(-c4ccc(-n5ccnn5)cc4O)nnc32)[C@H](F)CN1 [Cpd 22, 2-{7-[(4S,5R)-5-fluoro-2,2-dimethylpiperidin-4-yl]-7H-pyrrolo[2,3-c]pyridazin-3-yl}-5-(1H-1,2,3-triazol-1-yl)phenol] | < 100 nM |

Same assay, conditions: Table 2, comparison compounds tested according to the assay of Example 1; read-out: IC50

| Compound | IC50 |
| --- | --- |
| CC1(C)CC(n2nnc3cc(-c4ccc(-n5ccnn5)cc4O)nnc32)CC(C)(C)N1 [Cpd 72 in WO2020/005873, reference compound] | 179 nM |
| CC1(C)CC(n2nnc3cc(-c4ccc(-c5cn[nH]c5)cc4O)nnc32)CC(C)(C)N1 [Cpd 7 in WO2020/005873, reference compound] | 6.4 nM |
| CC1(C)CC(n2ccc3cc(-c4ccc(-c5cn[nH]c5)cc4O)nnc32)CC(C)(C)N1 [Cpd 26 in WO2020/005873, reference compound] | 7.1 nM |
| CC1(C)CC(n2ccc3cc(-c4ccc(-n5ccnn5)cc4O)nnc32)CC(C)(C)N1 [Cpd 1, 2-[7-(2,2,6,6-tetramethylpiperidin-4-yl)-7H-pyrrolo[2,3-c]pyridazin-3-yl]-5-(1H-1,2,3-triazol-1-yl)phenol] | 0.8 nM |

Same assay, conditions: compared with Cpd 26 in WO2020/005873 (1H-pyrazole replaced with 1H-1,2,3-triazole)

| Compound | improvement in potency |
| --- | --- |
| CC1(C)CC(n2ccc3cc(-c4ccc(-n5ccnn5)cc4O)nnc32)CC(C)(C)N1 [Cpd 1, 2-[7-(2,2,6,6-tetramethylpiperidin-4-yl)-7H-pyrrolo[2,3-c]pyridazin-3-yl]-5-(1H-1,2,3-triazol-1-yl)phenol] | over 8 fold |

Same assay, conditions: compared with Cpd 72 in WO2020/005873 (3H-[1,2,3]-triazolo[4,5-c]pyridazine core)

| Compound | improvement in potency |
| --- | --- |
| CC1(C)CC(n2ccc3cc(-c4ccc(-n5ccnn5)cc4O)nnc32)CC(C)(C)N1 [Cpd 1, 2-[7-(2,2,6,6-tetramethylpiperidin-4-yl)-7H-pyrrolo[2,3-c]pyridazin-3-yl]-5-(1H-1,2,3-triazol-1-yl)phenol] | 223 fold |
